# Assay results: patent US20240208944A1, “Quinazoline Derivatives, Pharmaceutical Compositions, and Therapeutic Uses Related to Nox Inhibition” (Emory University, priority 2021, published 2024)
# Structures can show the parent of a compound that is named as a salt. Where two headings read alike, the source gives them in different places.
# Key:
# Cytotoxicity CC50 = type: cell-based
# NOX-4 = NOX-4 (Homo sapiens (Human), UniProt Q9NPH5); test: NOX-4 inhibition (Nox assays); type: biochemical
# NOX-2 = NOX-2 (Homo sapiens (Human), UniProt P04839); test: NOX-2 inhibition (Nox assays); type: biochemical
# Sequence of NOX-2 (P04839 2-570, species assumed): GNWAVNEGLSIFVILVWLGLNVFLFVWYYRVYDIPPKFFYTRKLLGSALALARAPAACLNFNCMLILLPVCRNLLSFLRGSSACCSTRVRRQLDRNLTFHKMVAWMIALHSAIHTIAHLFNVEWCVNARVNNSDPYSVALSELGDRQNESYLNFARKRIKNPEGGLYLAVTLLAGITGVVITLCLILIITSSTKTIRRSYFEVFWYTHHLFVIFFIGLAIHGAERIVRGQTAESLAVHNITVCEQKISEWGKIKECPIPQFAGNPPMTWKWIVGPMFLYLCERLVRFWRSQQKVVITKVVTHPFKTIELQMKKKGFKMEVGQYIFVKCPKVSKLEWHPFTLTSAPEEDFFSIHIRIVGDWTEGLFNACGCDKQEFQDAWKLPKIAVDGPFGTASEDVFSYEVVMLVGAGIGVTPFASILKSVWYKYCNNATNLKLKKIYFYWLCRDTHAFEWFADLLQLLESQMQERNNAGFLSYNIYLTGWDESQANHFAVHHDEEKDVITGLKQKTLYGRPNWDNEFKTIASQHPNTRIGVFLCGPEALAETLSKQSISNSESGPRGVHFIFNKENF
# Sequence of NOX-2 (P13498 whole entry partner, species assumed): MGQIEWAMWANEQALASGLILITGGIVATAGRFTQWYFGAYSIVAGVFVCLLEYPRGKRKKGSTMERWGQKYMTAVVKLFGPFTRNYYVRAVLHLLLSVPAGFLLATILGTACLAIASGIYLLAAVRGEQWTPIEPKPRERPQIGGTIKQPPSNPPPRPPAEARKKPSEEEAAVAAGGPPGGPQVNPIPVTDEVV
# [1] = In vivo pharmacokinetics in Sprague Dawley rats; parameters: species or system rat; conditions: for half-life: male SD rats
# Description: The compound has a brain-to-plasma ratio >10.
# In Vivo Pharmacokinetics for Compound TG15-132S in Sprague Dawley (SD) Rats.
# THP1 monocytic cells = test: PMA-induced mRNA levels of NOX2, its subunits and inflammatory markers in THP1 cells; type: cell-based; conditions: THP1 cells treated with PMA 100 ng/ml
# Description: These markers are suppressed by the treatment of NOX2 inhibitor TG15-132.HCI.
# [2] = Mouse liver microsomal stability; type: in vitro ADME; conditions: mouse liver microsomes; read-out: MLM T1/2
# Procedure: (§1) The aqueous solubility, liver microsomal stability, and in vivo pharmacokinetics were determined. […] These derivatives have requisite stability in mouse liver microsomes.
# [3] = Aqueous (water) solubility; type: physicochemical; conditions: for solubility: water
# Procedure: as §1
# Sequence of NOX-4 (Q9NPH5 whole entry, species assumed): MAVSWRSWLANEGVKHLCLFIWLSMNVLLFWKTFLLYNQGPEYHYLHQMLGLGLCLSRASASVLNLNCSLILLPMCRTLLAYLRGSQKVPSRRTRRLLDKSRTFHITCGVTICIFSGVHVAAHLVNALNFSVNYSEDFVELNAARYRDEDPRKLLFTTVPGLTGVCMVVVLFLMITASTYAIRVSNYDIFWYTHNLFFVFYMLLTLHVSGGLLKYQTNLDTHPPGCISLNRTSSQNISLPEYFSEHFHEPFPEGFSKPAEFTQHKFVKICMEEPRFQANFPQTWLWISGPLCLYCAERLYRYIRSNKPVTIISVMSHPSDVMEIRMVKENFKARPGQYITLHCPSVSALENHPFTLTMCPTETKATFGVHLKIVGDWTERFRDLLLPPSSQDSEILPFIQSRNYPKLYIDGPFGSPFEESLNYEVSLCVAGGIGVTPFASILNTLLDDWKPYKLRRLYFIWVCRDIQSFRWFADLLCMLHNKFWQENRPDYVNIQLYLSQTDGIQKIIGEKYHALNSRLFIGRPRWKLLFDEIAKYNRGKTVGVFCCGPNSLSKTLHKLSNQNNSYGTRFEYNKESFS
# Sequence of NOX-4 (P13498 whole entry partner, species assumed): as the sequence (P13498 whole entry partner, species assumed) above
Structure (SMILES),CC50 (Cytotoxicity CC50) [µM],IC50 (NOX-4) [µM],IC50 (NOX-2) [µM],other results
"O=C(CCCn1c(=S)[nH]c2ccccc2c1=O)N1CCN(c2ccccc2O)CC1 [Compd. 43, 3-(4-(4-(2-hydroxyphenyl)piperazin-1-yl)-4-oxobutyl)-2-thioxo-2,3-dihydroquinazolin-4(1H)-one]",> 20,> 50,2.3,
"O=C(CCCn1c(=S)[nH]c2ccc(F)cc2c1=O)N1CCN(c2ccccc2O)CC1 [LY4-123S, 6-fluoro-3-(4-(4-(2-hydroxyphenyl)piperazin-1-yl)-4-oxobutyl)-2-thioxo-2,3-dihydroquinazolin-4(1H)-one]",,8.3,3.3,
"CN(C)CCCn1c(SCc2ccccn2)nc2ccc(F)cc2c1=O [LY5-10, 3-(3-(dimethylamino)propyl)-6-fluoro-2-((pyridin-2-ylmethyl)thio)quinazolin-4(3H)-one]",,,> 100,
"CN(C)CCCn1c(SCCCc2ccccn2)nc2ccc(F)cc2c1=O [LY5-11, 3-(3-(dimethylamino)propyl)-6-fluoro-2-((3-(pyridin-2-yl)propyl)thio)quinazolin-4(3H)-one]",,,> 100,
"CN(C)CCCn1c(SCCc2ccccn2)nc2ccc(Cl)cc2c1=O [TG15-124-HCl, 6-chloro-3-(3-(dimethylamino)propyl)-2-((2-(pyridin-2-yl)ethyl)thio)quinazolin-4(3H)-one]",> 10,,> 100,
"CN(C)CCCn1c(SCCc2ccccn2)nc2ccc(F)cc2c1=O [TG15-131-HCl, 3-(3-(dimethylamino)propyl)-6-fluoro-2-((2-(pyridin-2-yl)ethyl)thio)quinazolin-4(3H)-one]",,,> 50,
"CN(C)CCCn1c(SCCc2c[nH]c3ccccc23)nc2ccc(F)cc2c1=O.Cl [TG15-132S, 2-((2-(1H-indol-3-yl)ethyl)thio)-3-(3-(dimethylamino)propyl)-6-fluoroquinazolin-4(3H)-one, hydrochloride]",> 20,26,3.3,"clearance rate ([1]; SD rats, single 20 mg/kg IP): 32.75 mL/min/kg; half-life ([1]; Sprague-Dawley, rat, 20 mg/kg IP, brain, read-out: half-life in the brain): > 5 h; half-life ([1]; Sprague-Dawley, rat, 20 mg/kg IP, plasma, read-out: half-life in plasma): > 5 h; Kp ([1]; male, Sprague-Dawley, brain and plasma, rat, 20 mg/kg IP, read-out: In vivo B/P Ratio (brain-to-plasma ratio)): > 10; In vivo B/P Ratio (brain-to-plasma ratio) ([1]; rat, 20 mg/kg IP, hydrochloride): >10; mRNA levels of NOX2 (gp91phox), p47phox, p67phox, IL-1beta and TNF (THP1 monocytic cells): suppressed; half-life [2]: 0.4 h; water solubility (in words) [3]: excellent water solubility; solubility [3]: 1200 µM"
"CN(C)CCCn1c(SCCc2c[nH]c3ccccc23)nc2ccc(Cl)cc2c1=O.Cl [TG15-139S, 2-((2-(1H-indol-3-yl)ethyl)thio)-6-chloro-3-(3-(dimethylamino)propyl)quinazolin-4(3H)-one. Hydrochloride]",> 10,32,1.65,"Kp at 8 h ([1]; male, Sprague-Dawley, rat, brain and plasma, SD rats, single 20 mg/kg IP, up to 8 h, read-out: brain-to-plasma ratio up to 8 h): > 10; Kp ([1]; male, Sprague-Dawley, rat, brain and plasma, SD rats, single 20 mg/kg IP, read-out: brain-to-plasma ratio): > 23; half-life [2]: 1.25 h; water solubility (in words) [3]: excellent water solubility; solubility [3]: 2350 µM"
"CC(C)N1CCN(CCCn2c(SCCc3c[nH]c4ccccc34)nc3ccc(F)cc3c2=O)CC1 [TG17-57, 2-((2-(1H-indol-3-yl)ethyl)thio)-6-fluoro-3-(3-(4-isopropylpiperazin-1-yl)propyl)quinazolin-4(3H)-one]",,,2.4,
